In data set [1] the test system is Proteus mirabilis MW767054. Conditions: MW767054, 24 h.
Data set [2] relates to Microsporum gypseum MW766983. Conditions: 24 h.
In data set [3] the test system is S. pseudintermedius MW767056. Put plainly: Calcein leakage analysis (membrane permeabilization). The data set is classed as cell-based, Staphylococcus pseudintermedius. To be noted: 10× MIC, up to 1 h, triplicate, two independent experiments.
The subject of data set [4] is S. pseudintermedius MW767056. Kind of data set: Bacteriolysis analysis (culture turbidity at 600 nm). It counts as cell-based, Staphylococcus pseudintermedius. To be noted: 4× MIC, after 2.5 h, MHB, triplicate.
Data set [5] has as its system S. cohnii MW767053 biofilm. Conditions: for MBIC: 24 h; for MBEC: 48 h.
Data set [6] deals with S. pseudintermedius MW767056 biofilm. To be noted: for MBIC: 24 h; for MBEC: 48 h.
For data set [7], the system named is Staphylococcus sciuri MW767055.
Data set [8] deals with Staphylococcus simulans MW767052.
Data set [9] deals with M. canis MW768151 biofilm. Conditions: for MBIC: 24 h; for MBEC: 48 h.
For data set [10], the system named is Trichophyton mentagrophytes MW766984. To be noted: 24 h.
The subject of data set [11] is Staphylococcus haemolyticus MW767051.
Data set [12] deals with Staphylococcus cohnii MW767053.
Data set [13] relates to Staphylococcus pseudintermedius clinical isolates. To be noted: triplicate; for MBC/MFC: 10 μl plated on MH plate, no colonies; for MIC: broth microdilution, MHB, 1 × 10^5 CFU/ml, 24 h, 37°C. In general terms: Broth dilution looks for growth in wells or tubes with falling amounts of substance.
In data set [14] the test system is Staphylococcus pseudintermedius MW767056. To be noted: in combination with Allomyrinasin; peptide constant at 1/4 × MIC, 1 × 10^5 CFU/ml, triplicate.
The test system of data set [15] is sheep and mouse erythrocytes. Kind of data set: Hemolysis assay. To be noted: 4% erythrocyte suspension, 2 h, 37°C, absorption at 550 nm, triplicate.
Protocol: The hemolysis assay was carried out by inoculating mammalian erythrocytes obtained from fresh defibrinated sheep and mouse blood (Thermo Fisher Scientific, Waltham, MA, United States) with the peptides. Briefly, peptides were incubated at 37°C with a 4% erythrocyte suspension with a twofold serial dilution series of peptides ranging from 512 to 1 μg/ml for 2 h. PBS and 1% nonionic detergent Triton X-100^TM (Sigma-Aldrich, St. Louis, MO, United States) diluted in PBS served as negative and positive controls, respectively. Cytolysis was evaluated by the measurement of absorption using a microplate reader at 550 nm. Experiments were done in triplicate. The hemolysis is derived from the following calculation:
Haemolysis%=A-APBS/ATriton-APBS×100%.
A represents the absorbance of samples treated with peptide, while APBS and ATriton indicate the absorbance of the negative and positive controls, respectively.
Data set [16] deals with Staphylococcus cohnii MW767053. To be noted: in combination with Allomyrinasin; peptide constant at 1/4 × MIC, 1 × 10^5 CFU/ml, triplicate.
Data set [17] deals with S. cohnii MW767053. Conditions: peptide incubated in 25% FBS in RPMI-1640, 37°C, 4 h, then MIC at 1 × 10^5 CFU/ml; three replicates, two independent experiments.
Data set [18] concerns S. pseudintermedius MW767056. To be noted: three replicates, two independent experiments.
For data set [19], the system named is Microsporum canis MW768151. To be noted: peptide constant at 1/4 × MIC, 1 × 10^5 CFU/ml, triplicate.

Where a name gives a salt, the structure may show the parent alone. Read-outs that look alike come from different tables or passages of the source. No end group written: not given here. Some results are limits rather than exact numbers.

What is called MIC is the least concentration at which growth counts as inhibited.

With GLLSGILGAGKKIVF [Nigrocin-HLM], the results for the MBC/MFC in [1] and in data set [2] were 64 µg/mL and 1 µg/mL, respectively.

In the case of “ITSISLCTPGCKTGALMGCNMKTATCHCSIHVSK [Nisin, well-known membrane-perturbing peptide, positive control]”, the “calcein leakage (decrease in fluorescence intensity)” value in [3] is recorded as “at least 95%”. Besides, in data set [4], the “decrease in absorbance (turbidity, OD600)” value is recorded as greater than 60%.

Take VAEARQGSFSY [Pinipesin]: the MBIC is greater than 256 µg/mL in data set [5], greater than 256 µg/mL in data set [6] and 4 µg/mL in [9]. The MBEC in data set [5] is greater than 256 µg/mL; in data set [6], greater than 256 µg/mL; in data set [9], 16 µg/mL. Moreover, the MBC/MFC was greater than 256 µg/mL in data set [7] (24 h); 128 µg/mL in data set [8] (24 h); greater than 256 µg/mL in data set [1]; 0.5 µg/mL in data set [10]; greater than 256 µg/mL in [11] (24 h); 2 µg/mL in data set [2]. The compound further gave an MBC/MFC in data set [12] (24 h) greater than 256 µg/mL. For the same compound, the MIC in data set [7] (24 h) is greater than 256 µg/mL; in [8] (24 h), 128 µg/mL; in data set [1], greater than 256 µg/mL; in [10], 0.5 µg/mL; in [11] (24 h), greater than 256 µg/mL; in [2], 2 µg/mL. This compound also displayed an MIC in [12] (24 h) greater than 256 µg/mL.

Consider GLTRLFSVIK [Andricin B], for which the MBIC in data set [5] was 256 µg/mL; in [6] it was 128 µg/mL; in data set [9], 4 µg/mL. Moreover, the MBEC was greater than 256 µg/mL in data set [5], 256 µg/mL in [6] and 16 µg/mL in [9]. For the same compound, the MBC/MFC in data set [7] (strain MW767055, MBC, 10 μl plated on MH plate, no colonies, triplicate) is greater than 256 µg/mL; in [8] (strain MW767052, MBC, 10 μl plated on MH plate, no colonies, triplicate), 256 µg/mL; in data set [1], greater than 256 µg/mL; in [13] (strain MW767046), 32 µg/mL; in [13] (strain MW767056), 32 µg/mL; in data set [13] (strain MW793383), 32 µg/mL. The MBC/MFC in data set [13] (strain MW793384) was 128 µg/mL; in [13] (strain MW793385), 64 µg/mL; in data set [13] (strain MW793386), 64 µg/mL; in data set [13] (strain MW793387), 128 µg/mL; in data set [13] (strain MW793388) it was 64 µg/mL; in data set [13] (strain MW793389), 128 µg/mL. In addition, the MBC/MFC in data set [13] (strain MW793390) is 128 µg/mL; in [13] (strain MW793391), 32 µg/mL; in [13] (strain MW793392) it was 64 µg/mL; in data set [10], 1 µg/mL; in data set [11] (strain MW767051, MBC, 10 μl plated on MH plate, no colonies, triplicate), greater than 256 µg/mL; in data set [2], 2 µg/mL. In data set [12] (strain MW767053, MBC, 10 μl plated on MH plate, no colonies, triplicate), this compound registered an MBC/MFC of 64 µg/mL. The MIC in data set [7] (strain MW767055, broth microdilution, MHB, 1 × 10^5 CFU/ml, 24 h, 37°C, triplicate) was greater than 256 µg/mL; in data set [8] (strain MW767052, broth microdilution, MHB, 1 × 10^5 CFU/ml, 24 h, 37°C, triplicate), 256 µg/mL; in data set [1], greater than 256 µg/mL; in data set [13] (strain MW767046), 32 µg/mL; in data set [13] (strain MW767056), 32 µg/mL; in data set [13] (strain MW793383), 32 µg/mL. For the same compound, the MIC in [13] (strain MW793384) came to 128 µg/mL; in data set [13] (strain MW793385), 64 µg/mL; in data set [13] (strain MW793386), 64 µg/mL; in data set [13] (strain MW793387), 128 µg/mL; in [13] (strain MW793388), 64 µg/mL; in data set [13] (strain MW793389), 128 µg/mL. Moreover, the MIC in [13] (strain MW793390) was 128 µg/mL; in [13] (strain MW793391) it was 32 µg/mL; in data set [13] (strain MW793392), 64 µg/mL; in [10], 1 µg/mL; in [11] (strain MW767051, broth microdilution, MHB, 1 × 10^5 CFU/ml, 24 h, 37°C, triplicate), greater than 256 µg/mL; in [2] it was 2 µg/mL. The FIC index in [14] is 0.3125; in data set [16], 0.50. In addition, the “hemolytic activity at lower concentrations” value in data set [15] (1 to 64 μg/ml) is reported as “little or no obvious hemolytic activity”. The “hemolytic activity at high concentrations” value in data set [15] (>64 μg/ml) was “slight hemolytic activity”. The “MIC after serum treatment” value in data set [17] was determined as 256 µg/mL; in [18] (peptide incubated in 25% FBS in RPMI-1640, 37°C, 4 h, then MIC at 1 × 10^5 CFU/ml) it was 64 µg/mL. The “MIC without serum treatment” value in [18] (1 × 10^5 CFU/ml) worked out at 32 µg/mL.

On to AAVTRRILCWFA-NH2 [Allomyrinasin], for which the MBIC came to 128 µg/mL in data set [5], 32 µg/mL in [6] and 2 µg/mL in data set [9]. In addition, the MBEC in data set [5] amounted to 256 µg/mL; in [6], 128 µg/mL; in data set [9], 8 µg/mL. The MBC/MFC is greater than 256 µg/mL in data set [7] (24 h); 128 µg/mL in data set [8] (24 h); greater than 256 µg/mL in data set [1]; 2 µg/mL in [10]; greater than 256 µg/mL in data set [11] (24 h); 0.5 µg/mL in data set [2]. The MBC/MFC in data set [12] (24 h) was determined as 32 µg/mL. Moreover, the MIC is greater than 256 µg/mL in [7] (24 h); 128 µg/mL in data set [8] (24 h); greater than 256 µg/mL in [1]; 2 µg/mL in [10]; greater than 256 µg/mL in data set [11] (24 h); 0.5 µg/mL in data set [2]. The compound further had an MIC in data set [12] (24 h) of 32 µg/mL.

As for `CN(C/C=C/C#CC(C)(C)C)Cc1cccc2ccccc12` [Terbinafine, terbinafine hydrochloride], the FIC index in data set [19] (in combination with Allomyrinasin) came out at 0.375; in data set [19] (in combination with Andricin B) it was 0.50.

On to KWAVRIIRKFIKGFIS [Hs02], for which the MBC/MFC was greater than 256 µg/mL in [7] (24 h); 64 µg/mL in data set [8] (24 h); 128 µg/mL in data set [1]; 1 µg/mL in data set [10]; 128 µg/mL in data set [11] (24 h); 0.5 µg/mL in data set [2]. The MBC/MFC in data set [12] (24 h) is 32 µg/mL. Besides, the MIC was greater than 256 µg/mL in data set [7] (24 h); 64 µg/mL in [8] (24 h); 128 µg/mL in data set [1]; 1 µg/mL in [10]; 128 µg/mL in [11] (24 h); 0.5 µg/mL in [2]. This compound gave an MIC in data set [12] (24 h) of 32 µg/mL.

The record behind these values is publication PMC8386128, “Evaluation of Short-Chain Antimicrobial Peptides With Combined Antimicrobial and Anti-inflammatory Bioactivities for the Treatment of Zoonotic Skin Pathogens From Canines” (Frontiers in Microbiology, 2021).
